Laboratory results from patent US20120238553A1 (priority 2009, published 2012).
Structures can show the parent of a compound that is named as a salt.

Target: α7-subtype of nicotinic receptors (Rattus norvegicus, UniProt Q05941)
Experiment: biochemical
Type: binding

Chain of α7-subtype of nicotinic receptors (Q05941 23-502): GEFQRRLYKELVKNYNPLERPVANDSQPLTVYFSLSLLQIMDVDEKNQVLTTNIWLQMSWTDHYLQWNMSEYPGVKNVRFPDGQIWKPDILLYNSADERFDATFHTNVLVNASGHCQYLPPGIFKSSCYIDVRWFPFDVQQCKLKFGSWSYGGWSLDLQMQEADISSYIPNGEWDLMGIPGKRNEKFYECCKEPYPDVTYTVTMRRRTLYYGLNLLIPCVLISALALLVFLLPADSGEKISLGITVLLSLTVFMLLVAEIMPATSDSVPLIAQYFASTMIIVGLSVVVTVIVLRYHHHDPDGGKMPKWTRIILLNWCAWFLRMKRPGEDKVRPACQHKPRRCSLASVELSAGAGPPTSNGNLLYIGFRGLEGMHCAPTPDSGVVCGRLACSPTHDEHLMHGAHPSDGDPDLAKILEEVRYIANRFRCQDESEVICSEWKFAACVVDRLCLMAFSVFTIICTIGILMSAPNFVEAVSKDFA

With `c1cc2c(c(-c3nnc(N4CCN5CCC4CC5)o3)c1)OCO2` [Compound 1, 4-(5-Benzo[1,3]dioxol-4-yl-[1,3,4]oxadiazol-2-yl)-1,4-diaza-bicyclo[3.2.2]nonane fumaric acid salt] the IC50 was 22 nM.
